Test results as given in article PMC9090415, “Discovery of small molecule inhibitors of Plasmodium falciparum apicoplast DNA polymerase” (Journal of Enzyme Inhibition and Medicinal Chemistry, 2022).

Molecular target: P. falciparum apicoplast DNA polymerase (Pf-apPOL) (Plasmodium falciparum, UniProt Q8ILY1)
Assay: Fluorescence-based high-throughput DNA polymerase assay (molecular beacon), primary screen and dose-response
Assay type: biochemical
Details: for DNA Pol: 90 min, 10 µM; for IC50: supplemental file 2, sheet IC50 nontoxic compounds, Pf-apPOL
In short: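 Single-point screening used 10 µM compound with 20 nM polymerase, 20 nM hairpin substrate and 6 µM dNTPs for 90 min at 25 °C. Confirmatory titrations (2.5–80 µM) followed fluorescence at three times, and IC50 was derived from a fit including a cooperativity term n.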

[1] = primary screen value by plate and well
[2] = primary screen value of the 186 hits, unit not given

Sequence of P. falciparum apicoplast DNA polymerase (Pf-apPOL) (Q8ILY1 entry or part of it): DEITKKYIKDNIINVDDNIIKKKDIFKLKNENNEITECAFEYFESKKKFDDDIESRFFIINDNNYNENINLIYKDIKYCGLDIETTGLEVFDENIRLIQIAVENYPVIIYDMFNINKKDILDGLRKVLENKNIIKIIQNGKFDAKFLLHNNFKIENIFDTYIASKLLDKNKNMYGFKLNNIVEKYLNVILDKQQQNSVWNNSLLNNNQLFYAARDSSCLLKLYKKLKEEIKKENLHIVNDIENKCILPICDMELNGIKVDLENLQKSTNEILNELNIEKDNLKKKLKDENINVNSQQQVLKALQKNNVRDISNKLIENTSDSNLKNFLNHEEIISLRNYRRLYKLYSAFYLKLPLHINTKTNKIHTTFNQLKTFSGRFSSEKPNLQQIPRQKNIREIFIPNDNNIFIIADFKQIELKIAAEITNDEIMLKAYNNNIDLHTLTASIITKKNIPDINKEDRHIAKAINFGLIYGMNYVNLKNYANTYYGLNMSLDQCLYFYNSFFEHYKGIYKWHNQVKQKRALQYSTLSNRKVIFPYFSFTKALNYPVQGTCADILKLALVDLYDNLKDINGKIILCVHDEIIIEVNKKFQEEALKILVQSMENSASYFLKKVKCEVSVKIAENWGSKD

COCC(=O)Nc1c(-c2cccc(F)c2)nc2cc(C)ccn12 [Molecule 44, COCC(=O)Nc1c(nc2n1ccc(c2)C)c1cccc(c1)F]
% inhibition Apo pol 10' (DRC-1, concentration 2.5): 6.785%
% inhibition Apo pol 10' (DRC-1, concentration 5): 30.033%
% inhibition Apo pol 10' (DRC-1, concentration 10): 50.0286%
% inhibition Apo pol 10' (DRC-1, concentration 20): 55.8788%
% inhibition Apo pol 10' (DRC-1, concentration 40): 80.2368%
% inhibition Apo pol 10' (DRC-1, concentration 80): 83.5036%
% inhibition Apol 90' (DRC-1, concentration 2.5): 1.502%
% inhibition Apol 90' (DRC-1, concentration 5): 18.1602%
% inhibition Apol 90' (DRC-1, concentration 10): 35.5455%
% inhibition Apol 90' (DRC-1, concentration 20): 42.2252%
% inhibition Apol 90' (DRC-1, concentration 40): 74.869%
% inhibition Apol 90' (DRC-1, concentration 80): 86.4562%
% inhibition apPOL 180' (DRC-1, concentration 2.5): -2.445%
% inhibition apPOL 180' (DRC-1, concentration 5): 8.4449%
% inhibition apPOL 180' (DRC-1, concentration 10): 23.452%
% inhibition apPOL 180' (DRC-1, concentration 20): 30.1351%
% inhibition apPOL 180' (DRC-1, concentration 40): 67.7953%
% inhibition apPOL 180' (DRC-1, concentration 80): 86.4237%
% inhibition Apo pol 5' (DRC-2, concentration 2.5): 10%
% inhibition Apo pol 5' (DRC-2, concentration 5): 29%
% inhibition Apo pol 5' (DRC-2, concentration 10): 41%
% inhibition Apo pol 5' (DRC-2, concentration 20): 50%
% inhibition Apo pol 5' (DRC-2, concentration 40): 52%
% inhibition Apo pol 5' (DRC-2, concentration 80): 45%
% inhibition Apol 40' (DRC-2, concentration 2.5): 9%
% inhibition Apol 40' (DRC-2, concentration 5): 27%
% inhibition Apol 40' (DRC-2, concentration 10): 40%
% inhibition Apol 40' (DRC-2, concentration 20): 59%
% inhibition Apol 40' (DRC-2, concentration 40): 69%
% inhibition Apol 40' (DRC-2, concentration 80): 69%
% inhibition ApPOL 90' (DRC-2, concentration 2.5): 8%
% inhibition ApPOL 90' (DRC-2, concentration 5): 24%
% inhibition ApPOL 90' (DRC-2, concentration 10): 38%
% inhibition ApPOL 90' (DRC-2, concentration 20): 58%
% inhibition ApPOL 90' (DRC-2, concentration 40): 73%
% inhibition ApPOL 90' (DRC-2, concentration 80): 74%
% inhibition apPOL 180' (DRC-2, concentration 2.5): 3.16%
% inhibition apPOL 180' (DRC-2, concentration 5): 15%
% inhibition apPOL 180' (DRC-2, concentration 10): 27%
% inhibition apPOL 180' (DRC-2, concentration 20): 51%
% inhibition apPOL 180' (DRC-2, concentration 40): 73%
% inhibition apPOL 180' (DRC-2, concentration 80): 77%
% inhibition Apol 40' (conc. 5, DRC-2): 27%
% inhibition apPOL 180' (conc. 10, DRC-2): 27%
% inhibition Apol 40' (conc. 40, DRC-2): 69%
% inhibition ApPOL 90' (conc. 40, DRC-2): 73%
% inhibition apPOL 180' (conc. 40, DRC-2): 73%
% inhibition Apol 40' (conc. 80, DRC-2): 69%
DNA Pol [1]: 43
DNA Pol [2]: 43

Cc1nc2c(oc3nc(-c4ccco4)c4c(c32)CC(C)(C)OC4)c(-c2ccccc2)c1C(=O)O [Molecule 86]
IC50: 7.41 µM

Cc1cc(C)cc(-n2nc3c(c2NC(=O)c2ccco2)CSC3)c1 [KU0055926]
% inhibition Apo pol 10' (DRC-1, concentration 2.5): 8.0326%
% inhibition Apo pol 10' (DRC-1, concentration 5): 29.0516%
% inhibition Apo pol 10' (DRC-1, concentration 10): 59.7607%
% inhibition Apo pol 10' (DRC-1, concentration 20): 82.6519%
% inhibition Apo pol 10' (DRC-1, concentration 40): 88.4046%
% inhibition Apo pol 10' (DRC-1, concentration 80): 87.3935%
% inhibition Apol 90' (DRC-1, concentration 2.5): -0.9298%
% inhibition Apol 90' (DRC-1, concentration 5): 15.258%
% inhibition Apol 90' (DRC-1, concentration 10): 43.5557%
% inhibition Apol 90' (DRC-1, concentration 20): 72.7845%
% inhibition Apol 90' (DRC-1, concentration 40): 86.0941%
% inhibition Apol 90' (DRC-1, concentration 80): 88.1488%
% inhibition apPOL 180' (DRC-1, concentration 2.5): -5.803%
% inhibition apPOL 180' (DRC-1, concentration 5): 4.111%
% inhibition apPOL 180' (DRC-1, concentration 10): 27.2882%
% inhibition apPOL 180' (DRC-1, concentration 20): 60.1388%
% inhibition apPOL 180' (DRC-1, concentration 40): 79.5226%
% inhibition apPOL 180' (DRC-1, concentration 80): 84.9587%
% inhibition Apo pol 5' (DRC-2, concentration 2.5): 11%
% inhibition Apo pol 5' (DRC-2, concentration 5): 21%
% inhibition Apo pol 5' (DRC-2, concentration 10): 38%
% inhibition Apo pol 5' (DRC-2, concentration 20): 50%
% inhibition Apo pol 5' (DRC-2, concentration 40): 54%
% inhibition Apo pol 5' (DRC-2, concentration 80): 54%
% inhibition Apol 40' (DRC-2, concentration 2.5): 12%
% inhibition Apol 40' (DRC-2, concentration 5): 24%
% inhibition Apol 40' (DRC-2, concentration 10): 41%
% inhibition Apol 40' (DRC-2, concentration 20): 60%
% inhibition Apol 40' (DRC-2, concentration 40): 69%
% inhibition Apol 40' (DRC-2, concentration 80): 71%
% inhibition ApPOL 90' (DRC-2, concentration 2.5): 10%
% inhibition ApPOL 90' (DRC-2, concentration 5): 21%
% inhibition ApPOL 90' (DRC-2, concentration 10): 38%
% inhibition ApPOL 90' (DRC-2, concentration 20): 60%
% inhibition ApPOL 90' (DRC-2, concentration 40): 71%
% inhibition ApPOL 90' (DRC-2, concentration 80): 74%
% inhibition apPOL 180' (DRC-2, concentration 2.5): 6.36%
% inhibition apPOL 180' (DRC-2, concentration 5): 13%
% inhibition apPOL 180' (DRC-2, concentration 10): 27%
% inhibition apPOL 180' (DRC-2, concentration 20): 53%
% inhibition apPOL 180' (DRC-2, concentration 40): 68%
% inhibition apPOL 180' (DRC-2, concentration 80): 74%
% inhibition Apo pol 5' (conc. 5, DRC-2): 21%
% inhibition ApPOL 90' (conc. 5, DRC-2): 21%
% inhibition Apo pol 5' (conc. 10, DRC-2): 38%
% inhibition ApPOL 90' (conc. 10, DRC-2): 38%
% inhibition Apol 40' (conc. 20, DRC-2): 60%
% inhibition ApPOL 90' (conc. 20, DRC-2): 60%
% inhibition Apo pol 5' (conc. 40, DRC-2): 54%
% inhibition ApPOL 90' (conc. 40, DRC-2): 71%
% inhibition Apo pol 5' (conc. 80, DRC-2): 54%
% inhibition Apol 40' (conc. 80, DRC-2): 71%
% inhibition ApPOL 90' (conc. 80, DRC-2): 74%
% inhibition apPOL 180' (conc. 80, DRC-2): 74%
DNA Pol [1]: 58
DNA Pol [2]: 58

Cc1ccsc1Cn1c(C)ccc1C [Molecule 70]
IC50: 31.6 µM
